Reference: patent US11884649B2, “IRE1α inhibitors and uses thereof” (The Regents of the University of California, priority 2020, dated 2024)

Columns and labels:
[1] = tested on: INS-1 cells expressing IRE1α under Dox control; assay: Apoptosis in IRE1α-overexpressing INS-1 cells (cleaved caspase 3 immunoblot, Annexin V staining); type: cell-based, rat; settings: 20 μM, 5 ng/mL Dox
Description: Western Blotting and Antibodies
For protein analysis, cells were lysed into modified RIPA buffer (50 mM Tris, 150 mM NaCl, 10 mM NaF, 1% NP40 (v/v), 0.25% sodium deoxycholate (w/v), 5% glycerol (v/v), pH 7.8) containing protease inhibitor (Pierce Protease Inhibitor Tablets and 1 mM PMSF) and phosphatase inhibitor (Phosphatase inhibitor cocktail 2 and 3, Sigma Aldrich) prior to gel loading. Western blots were performed using Any kD™ Mini-PROTEAN® TGX™ Precast protein gels (BioRad). Gels were ran using Tris-Glycine running buffer (25 mM Tris pH 8.6, 192 mM glycine, 0.1% SDS (w/v)) at 180 V. Gels were transferred to nitrocellulose paper using the TransBlot Turbo System (BioRad) at 25 V, 2.5 A for 15 minutes. Nitrocellulose blots were blocked for 30 minutes at room temperature with Odyssey blocking buffer (Li-Cor). Primary antibodies were diluted into blocking buffer and incubated over night at 4° C. Blots were washed 2× with TBST (20 mM Tris pH 7.5, 150 mM NaCl, 0.1% Tween-20) and incubated with near-infrared-dye-conjugated secondary antibodies (Li-Cor) for 1 hour at room temperature. Blots were imaged using a Li-Cor Odyssey IR Imager and quantitated using ImageStudio. The following primary antibodies were used in this study: rabbit anti-IRE1α mAb #14C10 (Cell Signaling, no. 3294), mouse anti-FLAG (DYKDDDDK (SEQ ID NO:24) mAb (Sigma Aldrich, no. F3165), rabbit anti-spliced XBP1 (Cell Signaling, no. 12782), rabbit anti-caspase 3 (Cell Signaling, no. 9662), rabbit anti-cleaved caspase 3 (Cell Signaling, no. 9661), mouse anti-proinsulin (Santa Cruz Biotechnology, no. sc-9168), and rabbit anti-GAPDH (Santa Cruz Biotechnology, no. sc-25778).
For assaying apoptosis by Annexin V staining, cells were plated in 12-well plates overnight. Cells were then treated with various reagents for indicated time periods. On the day of flow cytometry analysis, cells were trypsinized and washed in PBS and resuspended in Annexin V binding buffer with Annexin-V FITC (BD Pharmingen™). Flow cytometry was performed on a Becton Dickinson LSRII flow cytometer.

[2] = tested on: lysate kinases (HEK293/HCT116 lysate mixture); assay: Kinome selectivity profiling by kinobead competition; type: binding; settings: 10 μM compound
Description: Prior to conducting cellular studies with PAIRs, we first performed comprehensive kinome selectivity profiling using a chemical proteomic method (FIG. 4A).^41-43 To do this, we measured the ability of 1, 2, 5, 6, PAIR, and KIRA9 to compete with lysate kinases for binding to a mixture of bead-immobilized, nonselective kinase inhibitors (kinobeads). Each compound (10 μM) was incubated with a standard kinobead matrix and a HEK293/HCT116 lysate mixture and competed kinases were quantified using mass spectrometry.
Kinome Profiling and Selectivity Kinobead Enrichment Protocol
HEK293 and HCT116 cells were plated on 15 cm plates until 90% confluent and lysed into 750 μL modified RIPA buffer (50 mM Tris, 150 mM NaCl, 10 mM NaF, 1% NP40, 0.25% sodium deoxycholate, 5% glycerol, pH 7.8) containing protease inhibitor (Pierce Protease Inhibitor Tablets and 1 mM PMSF) and phosphatase inhibitor (Phosphatase inhibitor cocktail 2 and 3, Sigma Aldrich). Protein content was determined via Bradford assay. […]
Tryptic peptides were separated using a nanoAcquity UPLC instrument with 10 cm fused silica capillary columns made in house and packed with 5 μm 120 Å reverse-phase C18 beads (ReproSil-Pur®, Maisch). […] MS data was analyzed using a Thermo Orbitrap Fusion Tribrid. Raw files were analyzed using MaxQuant (Andromeda) Version 1.6.0.16. […]

Row | SMILES | Annexin-V positivity (mitochondrial apoptosis assay) [1] | generation of cleaved caspase 3 [1] | kinome selectivity [2]
1 | O=S(=O)(CC(F)(F)F)Nc1ccc(Oc2ncccc2-c2ccnc(N[C@H]3CCCNC3)n2)c2ccccc12 (stereo in doubt) [PAIR1, 2,2,2-trifluoro-N-(4-(3-(2-(piperidin-3-ylamino)pyrimidin-4-yl)pyridin-2-yloxy)naphthalen-1-yl)ethanesulfonamide] | significant cytoprotective efficacy | markedly reduced | high selectivity for IRE1α
2 | O=S(=O)(CCC(F)(F)F)Nc1ccc(Oc2ncccc2-c2ccnc(NC3CCCNC3)n2)c2ccccc12 (stereo not drawn) [KIRA9, 3,3,3-trifluoro-N-(4-(3-(2-(piperidin-3-ylamino)pyrimidin-4-yl)pyridin-2-yloxy)naphthalen-1-yl)propane-1-sulfonamide] | significant cytoprotective efficacy | markedly reduced | equivalent potency and selectivity
